# PMC5790467, “Enhanced anti-tumor efficacy and mechanisms associated with docetaxel-piperine combination- in vitro and in vivo investigation using a taxane-resistant prostate cancer model” (Oncotarget, 2017)
# Legend:
# [1] = tested on: PC3-TxR tumor xenografts; test: Tumor growth in mice with PC3-TxR (taxane-resistant) tumor xenografts; format: in vivo, ICR-NOD/SCID mice; details: TxR tumor xenografts; two weeks after drug administration; DTX 20 mg/kg once a week i.v., PIP 50 mg/kg daily p.o.
# Description: The following experimental protocol was adopted after approval by the Animal Research Ethics Committee at the Chinese University of Hong Kong. PC3 and PC3-TxR cells were cultured in RPMI 1640 medium containing 10% FBS and 1% penicillin-streptomycin in a humidified atmosphere of 5% CO2 at 37°C. PC3 and PC3-TxR cell pellets were re-suspended in serum free RPMI1640 and diluted by Matrigel™ Basement Membrane Matrix (BD Biosciences, Bedford, MA, USA) to the density of 3.33 × 10^6cells/ml. Male ICR-NOD/SCID mice (Laboratory Animal Services Center at the Chinese University of Hong Kong) weighing 25 to 30 g (age 6–8 weeks) was anesthetized with an intraperitoneal injection of a cocktail containing 87 mg/kg ketamine and 8.7 mg/kg xylazine (diluted with saline and the injection volume was about 0.1 ml). The cell suspension was injected subcutaneously to both the left and right flank region. The tumors were allowed to grow for about 2 weeks. Tumor volumes were measured twice per week (tumor volume = [(W^2 × L)/2], where W is the tumor measurement at the widest point, and L is the tumor dimension at the longest point). When the tumors reach about 100 mm^3, treatment was started and the date was designated as Day 0.
# [2] = Body weight and tolerability in mice with TxR tumor xenografts
# Description: For oral administration of PIP, in 1 ml of PIP dosing solution, 100 µl of its stock solution was solubilized with 500 µl of PEG 400 and 400 µl of physiological saline and the mixture was administrated orally to mice at the dose of 0.1 ml/10 g body weight. […] On Day 0, mice with PC3 cell xenografts were divided into two groups and mice with PC3-TxR cell xenografts were divided into four groups. Mice in each group were treated according to Supplementary Table 3 and the drug dosing lasted for 2 weeks with body weight and tumor sized measured twice per week. […] At the end of experiment, the mice were anesthetized followed by haemospasia to death by cardiac puncture.
# [3] = tested on: PC3-TxR cells; test: Cell viability (cytotoxicity) of PC3-TxR cells; format: cell-based; details: Homo sapiens, triplicate samples, read-out: IC50, cytotoxicity of PIP on PC3-TxR
# Text: www.impactjournals.com/oncotarget/ Oncotarget, Supplementary Materials 2017
# investigation using a taxane-resistant prostate cancer model
# Supplementary Figure 1: Cell viability (measured from triplicate samples) of PC3-TxR cells. (A) The cytotoxicity of PIP
# (1 picture or pasted object on this page, not shown here)
compound,measurement,setting,value
"O=C(/C=C/C=C/c1ccc2c(c1)OCO2)N1CCCCC1 [PIP, 1-piperoyl piperidine]",percentage of tumor size increase,[1],196%
same,response of mice to PIP at higher dose,"[2]; PIP at 100 mg/kg, mice implanted with taxane-resistant prostate cancer",severe excitation responses
same,percentage of bodyweights,"[2]; TxR tumor xenograft mice, two weeks of treatment, control 96%",98%
same,IC50,[3],47.3 µg/mL
